One may read the Dmax as the greatest extent of degradation seen. Broadly, the DC50 is the midpoint of the concentration-degradation curve.

Structures are written as SMILES. Bounds are passed on as bounds.

Consider 13 compounds from patent US12606568B2, “SMARCA degraders and uses thereof” (Kymera Therapeutics, Inc., priority 2020, dated 2026).

This assay deals with SMARCA2 (Homo sapiens, UniProt P51531). In words: SMARCA2 Western blot MV4-11 degradation. The format is cell-based. More on the design: SMARCA2 and SMARCA4 protein degradation in MV4-11 cells; endogenous in cells; host or cells: MV4-11. To be noted: for Dmax: MV4-11, MV4-11 cells, read-out: SMARCA2 MSD MV411 degradation 24 h: average Dmax %; for Dmax / DC50: 24 h; for DC50 / SMARCA2 MSD MV411 degradation 24 h: average Dmax %: MV4-11 cells; for DC50: read-out: SMARCA2 MSD MV411 degradation 24 h: Mean external-Abs DC50. The protocol: Example 54. SMARCA2 and SMARCA 4 Western Blot MV4-11 Degradation
Sequence of SMARCA2 (P51531 whole entry): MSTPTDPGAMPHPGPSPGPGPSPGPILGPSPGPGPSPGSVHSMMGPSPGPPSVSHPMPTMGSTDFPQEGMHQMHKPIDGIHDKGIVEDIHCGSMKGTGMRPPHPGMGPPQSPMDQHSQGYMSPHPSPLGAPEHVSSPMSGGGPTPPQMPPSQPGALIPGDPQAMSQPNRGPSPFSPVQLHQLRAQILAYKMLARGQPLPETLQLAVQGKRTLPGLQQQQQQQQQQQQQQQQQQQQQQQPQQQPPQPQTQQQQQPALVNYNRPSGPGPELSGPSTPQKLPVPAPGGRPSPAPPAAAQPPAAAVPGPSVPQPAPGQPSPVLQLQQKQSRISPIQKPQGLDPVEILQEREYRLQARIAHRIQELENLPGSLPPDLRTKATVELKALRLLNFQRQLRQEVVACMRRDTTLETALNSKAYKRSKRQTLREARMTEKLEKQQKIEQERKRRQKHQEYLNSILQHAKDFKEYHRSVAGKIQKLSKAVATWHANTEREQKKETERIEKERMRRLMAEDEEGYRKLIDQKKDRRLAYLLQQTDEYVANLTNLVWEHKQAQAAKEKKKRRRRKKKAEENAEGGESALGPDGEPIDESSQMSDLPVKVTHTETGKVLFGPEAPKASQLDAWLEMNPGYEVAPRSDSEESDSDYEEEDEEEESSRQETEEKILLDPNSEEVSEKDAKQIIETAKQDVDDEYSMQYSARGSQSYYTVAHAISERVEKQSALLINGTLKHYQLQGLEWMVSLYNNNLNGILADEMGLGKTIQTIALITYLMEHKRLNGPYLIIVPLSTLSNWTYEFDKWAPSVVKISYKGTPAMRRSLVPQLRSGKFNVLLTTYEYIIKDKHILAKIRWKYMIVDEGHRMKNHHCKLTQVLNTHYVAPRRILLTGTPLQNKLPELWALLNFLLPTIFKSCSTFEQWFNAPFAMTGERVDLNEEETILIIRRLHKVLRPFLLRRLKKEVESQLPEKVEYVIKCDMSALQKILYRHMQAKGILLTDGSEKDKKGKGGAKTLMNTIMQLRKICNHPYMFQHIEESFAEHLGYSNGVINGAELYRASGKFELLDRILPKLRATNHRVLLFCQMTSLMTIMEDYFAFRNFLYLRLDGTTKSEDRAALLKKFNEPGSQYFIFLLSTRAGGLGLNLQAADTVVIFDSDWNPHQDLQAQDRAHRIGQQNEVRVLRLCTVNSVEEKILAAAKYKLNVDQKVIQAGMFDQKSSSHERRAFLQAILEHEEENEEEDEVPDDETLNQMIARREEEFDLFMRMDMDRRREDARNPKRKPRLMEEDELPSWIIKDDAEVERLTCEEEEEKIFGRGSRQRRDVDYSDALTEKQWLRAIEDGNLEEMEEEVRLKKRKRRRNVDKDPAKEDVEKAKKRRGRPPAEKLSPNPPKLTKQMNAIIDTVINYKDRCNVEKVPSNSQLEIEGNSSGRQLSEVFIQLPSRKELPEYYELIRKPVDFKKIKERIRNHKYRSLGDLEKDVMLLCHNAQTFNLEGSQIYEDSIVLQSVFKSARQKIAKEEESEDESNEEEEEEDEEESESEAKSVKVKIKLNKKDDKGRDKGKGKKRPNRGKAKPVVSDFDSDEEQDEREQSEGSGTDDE
Cells were seeded into 6-well plates (MV4-11: 4×10^6 cells/well/1 ml) and 1 ml of 2× compound solution was added into the well to make the final concentration and the plates were mixed well and incubated for 24 hours (No cytotoxicity was observed). The cell were collected with media and spun at 3000 rpm for 5 minutes. The supernatant was aspirated and the well and the cells were washed with cold PBS once and combined for centrifugation again; the supernatant aspirated again. 200 ul pre-chilled RIPA lysis buffer (Boston BioProducts BP-115D) with protease/phosphatase inhibitor (Roche 05892791001/Roche 04906837001) was directly added into the tube to lyze the cells for 20 minutes on ice. The cell lysate were collected into EP tubes and spun at 13000 rpm for 20 minutes and 72 ul supernatant was transferred to a fresh EP tube containing 18 ul of 5× loading buffer (Beyotime Bio P0015) to make the loading samples. The samples were heated to 100° C. for 10 minutes and cooled to RT and microcentrifuged. 20 ul of samples were loaded onto SDS-PAGE gel (Novex, WG1402BOX) and the gel was run at 80 V for 20 minutes and 120 V for 1.5 hours. The samples were electrotransfer to a NC membrane using wet-transfer method with 250 mA for 2.5 hours. The membrane was blocked with LICOR blocking buffer (LI-COR, 927-50000) for 1 hour. The membrane was washed three times with TBST (CST #9997S), 5 minutes each. Incubation was performed with primary antibody prepared in blocking buffer with 0.1% Tween-20 (Solarbio, P8220) at 4° C. overnight (Anti-SMARCA2/BRM antibody (ab15597) 1:500; Anti-BRG1 antibody [EPR3912] (ab108318) 1:1000; Rabbit anti-Baf180 antibody [EPR15860] (Abcam, ab196022) 1:1000; mouse anti-beta-Actin (8H10D10) (CST #3700) 1:10000). The membrane was washed three times with TBST, 5 minutes each. Incubation with secondary antibody was performed for 1 hour at RT (anti-rabbit IgG (Licor, 926-32211) 1:5000; anti-mouse IgG (LI-COR, 926-68070) 1:5000). The membrane was washed three times with TBST, 5 minutes each and lastly the LiCOR was read.
The letter codes for SMARCA degradation potency (DC50) include: A (<100 nM), B (100-500 nM), C (501-1000 nM), and D (>1000 nM). The letter codes for the percentage of SMARCA degradation after 24 hours (Dmax %) include: A (>90% degradation), B (>70-90% degradation), C (50-70% degradation), and D (<50% degradation).
Background: In western blotting, separated proteins are transferred to a membrane and probed.

Turning to `Cc1cc(C(C(=O)N2C[C@H](O)C[C@H]2C(=O)NCc2ccc(-c3scnc3C)cc2)C(C)CCN2CCC(c3cnc(N4C5CCC4CN(c4cc(-c6ccccc6O)nnc4N)C5)nc3)CC2)on1` (single isomer, unassigned) [I-45], the Dmax was over 90% and the DC50 is under 100 nM.
`Cc1cc(C(C(=O)N2C[C@H](O)C[C@H]2C(=O)NCc2ccc(-c3scnc3C)cc2)C(C)CCN2CCC(c3cnc(N4C5CCC4CN(c4cc(-c6ccccc6O)nnc4N)C5)nc3)CC2)on1` (single isomer, unassigned) [I-46]: the “SMARCA2 MSD MV411 degradation 24 h: average Dmax %” value is recorded as “B (B (>70-90% degradation))” and the DC50 was under 100 nM.
For `Cc1cc(C(C(=O)N2C[C@H](O)C[C@H]2C(=O)NCc2ccc(-c3scnc3C)cc2)C(C)CCN2CCC(c3cnc(N4C5CCC4CN(c4cc(-c6ccccc6O)nnc4N)C5)nc3)CC2)on1` (stereo partly drawn) [I-44, (2S,4R)-1-(5-(4-(2-(3-(3-amino-6-(2-hydroxyphenyl)pyridazin-4-yl)-3,8-diazabicyclo[3.2.1]octan-8-yl)pyrimidin-5-yl)piperidin-1-yl)-3-methyl-2-(3-methylisoxazol-5-yl)pentanoyl)-4-hydroxy-N-(4-(4-methylthiazol-5-yl)benzyl)pyrrolidine-2-carboxamide], the Dmax lay within 70 to 90% and the DC50 was under 100 nM.
In the case of `Cc1ncsc1-c1ccc(CNC(=O)[C@@H]2C[C@@H](O)CN2C(=O)[C@@H](c2cc(N3CCC(N4CCC(c5cnc(N6C7CCC6CN(c6cc(-c8ccccc8O)nnc6N)C7)nc5)CC4)CC3)no2)C(C)C)cc1` [I-49, (2S,4R)-1-(2-(3-(4-(2-(3-(3-amino-6-(2-hydroxyphenyl)pyridazin-4-yl)-3,8-diazabicyclo[3.2.1]octan-8-yl)pyrimidin-5-yl)-[1,4′-bipiperidin]-1′-yl)isoxazol-5-yl)-3-methylbutanoyl)-4-hydroxy-N-(4-(4-methylthiazol-5-yl)benzyl)pyrrolidine-2-carboxamide], the Dmax was over 90% and the DC50 is under 100 nM.
Regarding `Cc1ncsc1-c1ccc(CNC(=O)[C@@H]2C[C@@H](O)CN2C(=O)[C@@H](c2cc(OCCCCN3CCC(c4cnc(N5C6CCC5CN(c5cc(-c7ccccc7O)nnc5N)C6)nc4)CC3)no2)C(C)C)cc1` [I-56], the “SMARCA2 MSD MV411 degradation 24 h: average Dmax %” value is given as “B (B (>70-90% degradation))” and the half-maximal degradation concentration (DC50) is under 100 nM.
Take `Cc1ncsc1-c1ccc(CNC(=O)[C@@H]2C[C@@H](O)CN2C(=O)[C@H](c2cc(OCCCCN3CCC(c4cnc(N5C6CCC5CN(c5cc(-c7ccccc7O)nnc5N)C6)nc4)CC3)no2)C(C)C)cc1` [I-57]: the maximal degradation (Dmax) is over 90% and the DC50 was under 100 nM.
On to `Cc1ncsc1-c1ccc(CNC(=O)[C@@H]2C[C@@H](O)CN2C(=O)[C@@H](c2cc(N3CCC(CCN4CCC(c5cnc(N6C7CCC6CN(c6cc(-c8ccccc8O)nnc6N)C7)nc5)CC4)CC3)no2)C(C)C)cc1` [I-62, (2S,4R)-1-((2R)-2-(3-(4-(2-(4-(2-(3-(3-amino-6-(2-hydroxyphenyl)pyridazin-4-yl)-3,8-diazabicyclo[3.2.1]octan-8-yl)pyrimidin-5-yl)piperidin-1-yl)ethyl)piperidin-1-yl)isoxazol-5-yl)-3-methylbutanoyl)-4-hydroxy-N-(4-(4-methylthiazol-5-yl)benzyl)pyrrolidine-2-carboxamide], for which the Dmax was 50 to 70% and the DC50 is 100 to 500 nM.
For `Cc1ncsc1-c1ccc(CNC(=O)[C@@H]2C[C@@H](O)CN2C(=O)[C@H](c2cc(N3CCC(CCN4CCC(c5cnc(N6C7CCC6CN(c6cc(-c8ccccc8O)nnc6N)C7)nc5)CC4)CC3)no2)C(C)C)cc1` [I-63, (2S,4R)-1-((2S)-2-(3-(4-(2-(4-(2-(3-(3-amino-6-(2-hydroxyphenyl)pyridazin-4-yl)-3,8-diazabicyclo[3.2.1]octan-8-yl)pyrimidin-5-yl)piperidin-1-yl)ethyl)piperidin-1-yl)isoxazol-5-yl)-3-methylbutanoyl)-4-hydroxy-N-(4-(4-methylthiazol-5-yl)benzyl)pyrrolidine-2-carboxamide] the same measures were over 90% and under 100 nM.
For the compound `Cc1ncsc1-c1ccc(CNC(=O)[C@@H]2C[C@@H](O)CN2C(=O)[C@@H](NC(=O)C2CC3(C2)CC(N2CCC(c4cnc(N5CCN(c6cc(-c7ccccc7O)nnc6N)CC5)nc4)CC2)C3)C(C)(C)C)cc1` (stereo partly drawn) [I-65, (2S,4R)-1-((S)-2-(6-(4-(2-(4-(3-amino-6-(2-hydroxyphenyl)pyridazin-4-yl)piperazin-1-yl)pyrimidin-5-yl)piperidin-1-yl)spiro[3.3]heptane-2-carboxamido)-3,3-dimethylbutanoyl)-4-hydroxy-N-(4-(4-methylthiazol-5-yl)benzyl)pyrrolidine-2-carboxamide], the Dmax was in the range of 50 to 70% and the DC50 is under 100 nM.
Turning to `Cc1ncsc1-c1ccc(CNC(=O)[C@@H]2C[C@@H](O)CN2C(=O)[C@@H](NC(=O)C2(F)CC2)C(C)(C)C)c(OC2CCC(N3CCC(c4cnc(N5C6CC[C@@H]5CN(c5cc(-c7ccccc7O)nnc5N)C6)nc4)CC3)CC2)c1` (stereo partly drawn) [I-71, (2S,4R)—N-(2-(((1r,4S)-4-(4-(2-(3-(3-amino-6-(2-hydroxyphenyl)pyridazin-4-yl)-3,8-diazabicyclo[3.2.1]octan-8-yl)pyrimidin-5-yl)piperidin-1-yl)cyclohexyl)oxy)-4-(4-methylthiazol-5-yl)benzyl)-1-((S)-2-(1-fluorocyclopropanecarboxamido)-3,3-dimethylbutanoyl)-4-hydroxypyrrolidine-2-carboxamide], the “SMARCA2 MSD MV411 degradation 24 h: average Dmax %” value is reported as “B (B (>70-90% degradation))” and the DC50 was under 100 nM.
For the compound `Cc1ncsc1-c1ccc(CNC(=O)[C@@H]2C[C@@H](O)CN2C(=O)[C@@H](NC(=O)C2(F)CC2)C(C)(C)C)c(OCCCCN2CCC(c3cnc(N4C5CCC4CN(c4cc(-c6ccccc6O)nnc4N)C5)nc3)CC2)c1` [I-74], the Dmax was 70 to 90% and the half-maximal degradation concentration (DC50) is under 100 nM.
As to `Cc1ncsc1-c1ccc(CNC(=O)[C@@H]2C[C@@H](O)CN2C(=O)[C@@H](NC(=O)C2(F)CC2)C(C)(C)C)c(OCCCCCCN2CCC(c3cnc(N4C5CCC4CN(c4cc(-c6ccccc6O)nnc4N)C5)nc3)CC2)c1` [I-75, (2S,4R)—N-(2-((6-(4-(2-(3-(3-amino-6-(2-hydroxyphenyl)pyridazin-4-yl)-3,8-diazabicyclo[3.2.1]octan-8-yl)pyrimidin-5-yl)piperidin-1-yl)hexyl)oxy)-4-(4-methylthiazol-5-yl)benzyl)-1-((S)-2-(1-fluorocyclopropanecarboxamido)-3,3-dimethylbutanoyl)-4-hydroxypyrrolidine-2-carboxamide], the Dmax was 70 to 90% and the DC50 was under 100 nM.
For the compound `Cc1ncsc1-c1ccc(CNC(=O)[C@@H]2C[C@@H](O)CN2C(=O)[C@@H](NC(=O)CN2C3CCC2CN([C@H]2CC[C@@H](c4cnc(N5C6CCC5CN(c5cc(-c7ccccc7O)nnc5N)C6)nc4)CC2)C3)C(C)(C)C)cc1` [I-77, (2S,4R)-1-((2S)-2-(2-(3-((1s,4R)-4-(2-(3-(3-amino-6-(2-hydroxyphenyl)pyridazin-4-yl)-3,8-diazabicyclo[3.2.1]octan-8-yl)pyrimidin-5-yl)cyclohexyl)-3,8-diazabicyclo[3.2.1]octan-8-yl)acetamido)-3,3-dimethylbutanoyl)-4-hydroxy-N-(4-(4-methylthiazol-5-yl)benzyl)pyrrolidine-2-carboxamide], the Dmax was in the range of 70 to 90% and the DC50 is under 100 nM.
